Assay results taken from US20240239755A1, “SUBSTITUTED PYRIDAZINONES, SALTS OR N-OXIDES THEREOF AND THEIR USE AS HERBICIDALLY ACTIVE SUBSTANCES” (Bayer Aktiengesellschaft, priority 2021, published 2024).

Assays:
Format in all cases: in vivo
[1] = test system: Stellaria media (STEME); assay: Herbicidal post-emergence action, 1280 g/ha (Table B9); settings: visual assessment after ca. 3 weeks vs untreated controls
Outline: (§1)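 Post-emergence spray, single-leaf stage (2–3 wk after sowing, sandy loam); WP/EC in water + 0.5% additive, 600 L/ha. Greenhouse ~3 wk, then visual rating vs untreated: 0% = as control, 100% = plants dead.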

[2] = test system: Kochia scoparia (KCHSC); assay: Herbicidal post-emergence action, 1280 g/ha (Table B4); settings: visual assessment after ca. 3 weeks vs untreated controls
Outline: as §1

[3] = test system: Kochia scoparia (KCHSC); assay: Herbicidal post-emergence action, 320 g/ha, KCHSC; settings: visual grading after ca. 3 weeks
Outline: (§2)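 Greenhouse post-emergence test on weeds grown in sandy loam and treated at the single-leaf stage; damage was scored visually as percent of untreated controls after about 3 weeks.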

[4] = test system: Abutilon theophrasti (ABUTH); assay: Herbicidal post-emergence action, 1280 g/ha (Table B1); settings: visual assessment after ca. 3 weeks vs untreated controls
Outline: as §1

[5] = test system: Amaranthus retroflexus (AMARE); assay: Herbicidal post-emergence action, 320 g/ha, AMARE; settings: visual grading after ca. 3 weeks
Outline: as §2

[6] = test system: Amaranthus retroflexus (AMARE); assay: Herbicidal pre-emergence action, 1280 g/ha (Table A11); settings: visual grading after ca. 3 weeks vs untreated controls
Outline: (§3)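 Read-out: visual % damage at ca. 3 weeks versus untreated controls (100% = plants died). Treatment applied pre-emergence to covering soil in sandy loam pots as aqueous WP/EC with 0.5% additive, 600 L/ha; greenhouse at optimum growth conditions.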

[7] = test system: Veronica persica (VERPE); assay: Herbicidal post-emergence action, 320 g/ha, VERPE; settings: visual grading after ca. 3 weeks
Outline: as §2

[8] = test system: Veronica persica (VERPE); assay: Herbicidal post-emergence action, 1280 g/ha, VERPE; settings: visual grading vs untreated controls
Outline: (§4)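 Visual rating ~3 weeks after treatment: 0% equals untreated control, 100% means plants died. Treatment was a 1280 g/ha foliar spray (600 L water/ha, 0.5% additive, WP or EC formulation) applied to single-leaf-stage plants grown 2–3 weeks in sandy loam under controlled conditions.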

[9] = test system: Stellaria media (STEME); assay: Herbicidal pre-emergence action, 1280 g/ha (Table A9); settings: visual grading after ca. 3 weeks vs untreated controls
Outline: as §3

[10] = test system: Amaranthus retroflexus (AMARE); assay: Herbicidal pre-emergence action, 320 g/ha, AMARE; settings: visual grading after ca. 3 weeks
Source text: (§5) Seeds of mono- and dicotyledonous weed plants were sown in plastic pots (double sowings with one species of mono- and one species of dicotyledonous weed plants per pot), in sandy loam, and covered with soil. The compounds according to the invention, formulated in the form of wettable powders (WP) or as emulsifiable concentrates (EC), were applied to the surface of the covering soil as an aqueous suspension or as an emulsion, with the addition of 0.5% of an additive, at an application rate of 600 litres of water per hectare (converted). Following treatment, the pots were placed in a greenhouse and kept under optimum growth conditions for the test plants. The visual grading of the damage to the test plants was carried out after ca. 3 weeks in comparison to untreated controls (herbicidal effect in percent (%): 100% effect=plants have died, 0% effect=as control plants).
Tables C1 to C6 below, show the effects of selected compounds of the general formula (I) according to Table 1 on various harmful plants using an application rate corresponding to 320 g/ha obtained by the experimental procedure mentioned above.

[11] = test system: Lolium rigidum (LOLRI); assay: Herbicidal post-emergence action, 1280 g/ha (Table B5); settings: visual assessment after ca. 3 weeks vs untreated controls
Outline: as §1

[12] = test system: Lolium rigidum (LOLRI); assay: Herbicidal pre-emergence action, 1280 g/ha (Table A5); settings: visual grading after ca. 3 weeks vs untreated controls
Outline: as §3

[13] = test system: Amaranthus retroflexus (AMARE); assay: Herbicidal post-emergence action, 1280 g/ha, AMARE; settings: visual grading vs untreated controls
Outline: as §4

[14] = test system: Poa annua (POAAN); assay: Herbicidal pre-emergence action, 1280 g/ha (Table A7); settings: visual grading after ca. 3 weeks vs untreated controls
Source text: as §5, with “plants). Tables A1 to A11 below, show the effects of selected compounds of the general formula (I) according to Table 1 on various harmful plants and an application rate corresponding to 1280 g/ha obtained by the experimental procedure mentioned above.” for “plants).”

[15] = test system: Matricaria inodora (MATIN); assay: Herbicidal post-emergence action, 1280 g/ha (Table B6); settings: visual assessment after ca. 3 weeks vs untreated controls
Outline: as §1

[16] = test system: Stellaria media (STEME); assay: Herbicidal post-emergence action, 320 g/ha, STEME; settings: visual grading after ca. 3 weeks
Outline: as §2

[17] = test system: Matricaria inodora (MATIN); assay: Herbicidal post-emergence action, 320 g/ha, MATIN; settings: visual grading after ca. 3 weeks
Outline: as §2

[18] = test system: Matricaria inodora (MATIN); assay: Herbicidal pre-emergence action, 1280 g/ha (Table A6); settings: visual grading after ca. 3 weeks vs untreated controls
Outline: as §3

[19] = test system: Setaria viridis (SETVI); assay: Herbicidal pre-emergence action, 1280 g/ha (Table A8); settings: visual grading after ca. 3 weeks vs untreated controls
Source text: as §5, with “plants). Tables A1 to A11 below, show the effects of selected compounds of the general formula (I) according to Table 1 on various harmful plants and an application rate corresponding to 1280 g/ha obtained by the experimental procedure mentioned above.” for “plants).”

[20] = test system: Stellaria media (STEME); assay: Herbicidal pre-emergence action, 320 g/ha, STEME; settings: visual grading after ca. 3 weeks
Outline: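 Percent herbicidal effect, graded by eye about 3 weeks after treatment relative to untreated pots (0% matching controls, 100% dead plants). Application of 320 g/ha onto soil covering freshly sown seeds, as aqueous suspension or emulsion plus 0.5% additive at 600 L/ha; pots kept in greenhouse.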

[21] = test system: Abutilon theophrasti (ABUTH); assay: Herbicidal pre-emergence action, 1280 g/ha (Table A1); settings: visual grading after ca. 3 weeks vs untreated controls
Outline: as §3

[22] = test system: Kochia scoparia (KCHSC); assay: Herbicidal pre-emergence action, 1280 g/ha (Table A4); settings: visual grading after ca. 3 weeks vs untreated controls
Outline: as §3

[23] = test system: Matricaria inodora (MATIN); assay: Herbicidal pre-emergence action, 320 g/ha (Table C3); settings: visual grading after ca. 3 weeks vs untreated controls
Source text: as §5, with “plants). Tables C1 to C6 below, show the effects of selected compounds of the general formula (I) according to Table 1 on various harmful plants using an application rate corresponding to 320 g/ha obtained by the experimental procedure mentioned above.” for “plants).”

[24] = test system: Abutilon theophrasti (ABUTH); assay: Herbicidal post-emergence action, 320 g/ha, ABUTH; settings: visual grading after ca. 3 weeks
Outline: as §2

[25] = test system: Lolium rigidum (LOLRI); assay: Herbicidal pre-emergence action, 320 g/ha (Table C2); settings: visual grading after ca. 3 weeks vs untreated controls
Outline: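 Herbicidal effect was graded by eye roughly 3 weeks after treatment, from 0% (as control) to 100% (dead plants). Weed seeds sown in sandy loam were covered and sprayed on the soil surface with WP/EC suspensions or emulsions, 0.5% additive, 600 L water/ha, then kept in a greenhouse.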

[26] = test system: Setaria viridis (SETVI); assay: Herbicidal post-emergence action, 1280 g/ha (Table B8); settings: visual assessment after ca. 3 weeks vs untreated controls
Source text: (§6) Seeds of mono- and dicotyledonous weed plants were sown in plastic pots (double sowings with one species of mono- and one species of dicotyledonous weed plants per pot), in sandy loam, covered with soil and grown under controlled growth conditions. 2 to 3 weeks after sowing, the test plants were sprayed in the single-leaf stage. The compounds according to the invention, formulated in the form of wettable powders (WP) or as emulsifiable concentrates (EC), were sprayed onto the green plant parts as an aqueous suspension or as an emulsion, with the addition of 0.5% of an additive, at an application rate of 600 litres of water per hectare (converted). The test plants were placed in the greenhouse for ca. 3 weeks under optimum growth conditions, and then the effect of the preparations was assessed visually in comparison with untreated controls (herbicidal effect in percent (%): 100% effect=plants have died, 0% effect=as control plants). Tables B1 to B11 below, show the effects of selected compounds of the general formula (I) according to Table 1 on various harmful plants using an application rate corresponding to 1280 g/ha obtained by the experimental procedure mentioned above.

[27] = test system: Lolium rigidum (LOLRI); assay: Herbicidal post-emergence action, 320 g/ha, LOLRI; settings: visual grading after ca. 3 weeks
Source text: as §6, with “plants).” for “plants). Tables B1 to B11 below, show the effects of selected compounds of the general formula (I) according to Table 1 on various harmful plants using an application rate corresponding to 1280 g/ha obtained by the experimental procedure mentioned above.”
Tables D1 to D8 below, show the effects of selected compounds of the general formula (I) according to Table 1 on various harmful plants using an application rate corresponding to 320 g/ha obtained by the experimental procedure mentioned above.

Row | Structure (SMILES) | herbicidal effect STEME [1] [%] | herbicidal effect KCHSC [2] [%] | herbicidal effect KCHSC [3] [%] | herbicidal effect ABUTH [4] [%] | herbicidal effect AMARE [5] [%] | herbicidal effect AMARE [6] [%] | herbicidal effect VERPE [8] [%] | herbicidal effect STEME [9] [%] | herbicidal effect AMARE [10] [%] | herbicidal effect LOLRI [11] [%] | herbicidal effect LOLRI [12] [%] | herbicidal effect AMARE [13] [%] | herbicidal effect POAAN [14] [%] | herbicidal effect MATIN [15] [%] | herbicidal effect STEME [16] [%] | herbicidal effect MATIN [18] [%] | herbicidal effect SETVI [19] [%] | herbicidal effect STEME [20] [%] | herbicidal effect ABUTH [21] [%] | herbicidal effect LOLRI [25] [%] | further results
1 | Cc1nn(C)c(=O)c(Oc2ccccc2Cl)c1O [Example I-003] | 100 | 100 | 90 | 90 | 90 | 90 | 100 | 100 | 90 | 90 | 100 | 100 | 90 | 100 | 90 | – | – | – | – | – | herbicidal effect VERPE [7]: 100%
2 | Cc1nn(C)c(=O)c(Oc2ccccc2C2CC2)c1O [Example I-014] | 100 | 100 | 100 | – | 90 | 100 | 90 | 100 | 90 | 90 | 100 | 90 | 90 | 90 | 100 | 100 | 90 | 100 | 90 | – | herbicidal effect MATIN [17]: 90%
3 | Cc1nn(C)c(=O)c(Oc2cc(Cl)cc(Cl)c2)c1O [Example I-027] | 90 | 90 | – | 90 | 90 | – | 90 | 100 | – | – | 100 | 100 | – | – | 90 | 100 | – | 100 | 100 | – | herbicidal effect KCHSC [22]: 90%; herbicidal effect MATIN [23]: 100%; herbicidal effect ABUTH [24]: 90%
4 | Cc1nn(C)c(=O)c(Oc2ccc(F)cc2C2CC2)c1O [Example I-033] | 90 | 90 | – | 90 | 90 | 90 | 90 | 90 | 90 | – | 100 | 100 | – | 90 | – | – | – | – | – | 100 | herbicidal effect ABUTH [24]: 90%
5 | Cc1nn(C)c(=O)c(Oc2cc(Cl)ccc2Br)c1OC(=O)C(C)C [Example I-092] | 100 | – | – | – | – | 100 | – | 100 | 90 | 90 | 100 | 90 | – | 90 | 90 | 100 | 90 | 90 | 90 | 100 | herbicidal effect SETVI [26]: 90%
6 | Cc1nn(C)c(=O)c(Oc2cc(Cl)ccc2Cl)c1OC(=O)C(C)C [Example I-095] | 90 | – | – | – | – | 100 | – | 100 | 90 | 90 | 100 | 90 | – | 90 | 90 | 90 | – | 90 | – | 90 | herbicidal effect LOLRI [27]: 90%
